# Reference: patent EP3290412A1, “HIV-1 NUCLEOCAPSID INHIBITORS” (Università degli Studi di Siena, priority 2016, dated 2018)
# Tested on: HeLa cells
# Test: HeLa Proliferation assay (CellTiter Glo)
# Assay type: cell-based
# Details: 72 hours
# Method: HeLa cells (ATCC® CCL2™) in DMEM (Dulbecco Modified Eagle's Medium) without phenol red, Thermo, 11880, USA + 10% FBS + 1X PenStrep + 1X Gln or HUVEC cells (ATCC® CRL1730™) in EBM-2 (Endothelial Growth Basal Medium, Lonza, CC3156) + EGM-2 SingleQuotsTMSupplements and Growth Factors (Lonza, CC4176) + 1X Penicyllin-Streptomycin (PenStrep, ThermoFisher) + 1X Glutamine, are plated in a 384 well plate (Thermo, 4334-11, USA) to a density of 2000 cells per well and let recover for four hours at 37 °C, 5% CO2 in a humidified atmosphere. After the recovery, compounds are transferred to assay plates as per compound preparation method. Assay plates are then incubated at 37 °C, 5% CO2 in a humidified atmosphere for 72 hours. Cell viability is measured by the CellTiter Glo (Promega, G8080, USA) as per manufacturer instruction.
row,Structure (SMILES),Proliferation assay HELA TD50 [µM]
1,"O=C(OCC1CCCCC1)c1nc(-c2ccccn2)nc(O)c1O [Compound 2, cyclohexylmethyl 5,6-dihydroxy-2-(pyridin-2-yl)pyrimidine-4-carboxylate]",>50
2,"O=C(NCC1CC1)c1nc(-c2ccccn2)nc(O)c1O [Compound 3, N-(cyclopropylmethyl)-5,6-dihydroxy-2-(pyridin-2-yl)pyrimidine-4-carboxamide]",>50
3,"O=C(NC1CCCCC1)c1nc(-c2ccccn2)nc(O)c1O [Compound 4, N-cyclohexyl-5,6-dihydroxy-2-(pyridin-2-yl)pyrimidine-4-carboxamide]",8.1353
4,"C[C@@H](NC(=O)c1nc(-c2ccccn2)nc(O)c1O)C1CCCCC1 [Compound 5, (R)-N-(1-cyclohexylethyl)-5,6-dihydroxy-2-(pyridin-2-yl)pyrimidine-4-carboxamide]",3.1844
5,"O=C(NCCC1CCCCC1)c1nc(-c2ccccn2)nc(O)c1O [Compound 6, N-(2-cyclohexylethyl)-5,6-dihydroxy-2-(pyridin-2-yl)pyrimidine-4-carboxamide]",4.2362
6,"CN1CCCC(CNC(=O)c2nc(-c3ccccn3)nc(O)c2O)C1 (stereo not shown) [Compound 7, 5,6-dihydroxy-N-((1-methylpiperidin-3 - yl)methyl)-2-(pyridin-2-yl)pyrimidine-4-carboxamide]",>50
7,"O=C(NCCCC1CCCCC1)c1nc(-c2ccccn2)nc(O)c1O [Compound 8, N-(3-cyclohexylpropyl)-5,6-dihydroxy-2-(pyridin-2-yl)pyrimidine-4-carboxamide]",4.8472
8,"Cc1cccnc1-c1nc(O)c(O)c(C(=O)OCC2CCCCC2)n1 [Compound 10, cyclohexylmethyl 5,6-dihydroxy-2-(3-methylpyridin-2-yl)pyrimidine-4-carboxylate]",>50
9,"Cc1cccnc1-c1nc(O)c(O)c(C(=O)NCC2CCCCC2)n1 [Compound 11, N-(cyclohexylmethyl)-5,6-dihydroxy-2-(3-methylpyridin-2-yl)pyrimidine-4-carboxamide]",8.2839
10,"O=C(OCCC1CCCCC1)c1nc(-c2ccccn2)nc(O)c1O [Compound 12, 2-cyclohexylethyl 5,6-dihydroxy-2-(pyridin-2-yl)pyrimidine-4-carboxylate]",>50
11,"O=C(OC1CCCCC1)c1nc(-c2ccccn2)nc(O)c1O [Compound 13, cyclohexyl 5,6-dihydroxy-2-(pyridin-2-yl)pyrimidine-4-carboxylate]",>50
12,"O=C(OCCCC1CCCCC1)c1nc(-c2ccccn2)nc(O)c1O [Compound 14, 3-cyclohexylpropyl 5,6-dihydroxy-2-(pyridin-2-yl)pyrimidine-4-carboxylate]",>50
13,"O=C(OCC1CCCCC1)c1nc(-c2ncccc2Cl)nc(O)c1O [Compound 15, cyclohexylmethyl 2-(3-chloropyridin-2-yl)-5,6-dihydroxypyrimidine-4-carboxylate]",>50
14,"O=C(NCC1CCCCC1)c1nc(-c2ncccc2Cl)nc(O)c1O [Compound 16, 2-(3-chloropyridin-2-yl)-N-(cyclohexylmethyl)-5,6-dihydroxypyrimidine-4-carboxamide]",16.609
15,"CC(OC(=O)c1nc(-c2ccccn2)nc(O)c1O)C1CCCCC1 (stereo not shown) [Compound 17, 1-cyclohexylethyl 5,6-dihydroxy-2-(pyridin-2-yl)pyrimidine-4-carboxylate]",>50
16,"Cc1cccc(-c2nc(O)c(O)c(C(=O)N[C@H](C)C3CCCCC3)n2)n1 [Compound 18, (R)-N-(1-cyclohexylethyl)-5,6-dihydroxy-2-(6-methylpyridin-2-yl)pyrimidine-4-carboxamide]",4.6302
17,"Cc1ccnc(-c2nc(O)c(O)c(C(=O)N[C@H](C)C3CCCCC3)n2)c1 [Compound 19, (R)-N-(1-cyclohexylethyl)-5,6-dihydroxy-2-(4-methylpyridin-2-yl)pyrimidine-4-carboxamide]",2.7357
18,"C[C@@H](NC(=O)c1nc(-c2ccc(N)cn2)nc(O)c1O)C1CCCCC1 [Compound 20, (R)-2-(5-aminopyridin-2-yl)-N-(1-cyclohexylethyl)-5,6-dihydroxypyrimidine-4-carboxamide]",0.6864
19,"C[C@@H](NC(=O)c1nc(-c2ccc(C(=O)OCc3ccccc3)cn2)nc(O)c1O)C1CCCCC1 [Compound 21, benzyl (R)-6-(4-((1-cyclohexylethyl)carbamoyl)-5,6-dihydroxypyrimidin-2-yl)nicotinate]",3.9607

row,Structure (SMILES),Proliferation assay HELA TD50 [µM]
1,"C[C@@H](NC(=O)c1nc(-c2ccc3ccccc3n2)nc(O)c1O)C1CCCCC1 [Compound 22, (R)-N-(1-cyclohexylethyl)-5,6-dihydroxy-2-(quinolin-2-yl)pyrimidine-4-carboxamide]",2.8446
2,"O=C(NC1(C2CCCCC2)CC1)c1nc(-c2ccccn2)nc(O)c1O [Compound 24, N-(1-cyclohexylcyclopropyl)-5,6-dihydroxy-2-(pyridin-2-yl)pyrimidine-4-carboxamide]",1.5131
3,"C[C@@H](NC(=O)c1nc(-c2cc3ccccc3cn2)nc(O)c1O)C1CCCCC1 [Compound 25, (R)-N-(1-cyclohexylethyl)-5,6-dihydroxy-2-(isoquinolin-3-yl)pyrimidine-4-carboxamide]",1.3934
4,"C[C@@H](NC(=O)c1nc(-c2cc(C(F)(F)F)ccn2)nc(O)c1O)C1CCCCC1 [Compound 27, (R)-N-(1-cyclohexylethyl)-5,6-dihydroxy-2-(4-(trifluoromethyl)pyridin-2-yl)pyrimidine-4-carboxamide]",5.9753
5,"C[C@@H](NC(=O)c1nc(-c2nc3ccccc3[nH]2)nc(O)c1O)C1CCCCC1 [Compound 29, (R)-2-(1H-benzo[d]imidazol-2-yl)-N-(1-cyclohexylethyl)-5,6-dihydroxypyrimidine-4-carboxamide]",3.3965
6,"C[C@@H](NC(=O)c1nc(-c2ncccc2C(F)(F)F)nc(O)c1O)C1CCCCC1 [Compound 30, (R)-N-(1-cyclohexylethyl)-5,6-dihydroxy-2-(3-(trifluoromethyl)pyridin-2-yl)pyrimidine-4-carboxamide]",>50
7,"COc1ccc(-c2nc(O)c(O)c(C(=O)N[C@H](C)C3CCCCC3)n2)nc1 [Compound 32, (R)-N-(1-cyclohexylethyl)-5,6-dihydroxy-2-(5-methoxypyridin-2-yl)pyrimidine-4-carboxamide]",0.9356
8,"C[C@@H](NC(=O)c1nc(-c2ncccc2Cl)nc(O)c1O)C1CCCCC1 [Compound 33, (R)-2-(3-chloropyridin-2-yl)-N-(1-cyclohexylethyl)-5,6-dihydroxypyrimidine-4-carboxamide]",6.8148
9,"C[C@@H](NC(=O)c1nc(-c2cccc(Cl)n2)nc(O)c1O)C1CCCCC1 [Compound 34, (R)-2-(6-chloropyridin-2-yl)-N-(1-cyclohexylethyl)-5,6-dihydroxypyrimidine-4-carboxamide]",8.2296
10,"C[C@@H](NC(=O)c1nc(-c2cc(OCc3ccccc3)ccn2)nc(O)c1O)C1CCCCC1 [Compound 35, (R)-2-(4-(benzyloxy)pyridin-2-yl)-N-(1-cyclohexylethyl)-5,6-dihydroxypyrimidine-4-carboxamide]",4.5896
11,"C[C@@H](NC(=O)c1nc(-c2ccc(C(F)(F)F)cn2)nc(O)c1O)C1CCCCC1 [Compound 36, (R)-N-(1-cyclohexylethyl)-5,6-dihydroxy-2-(5-(trifluoromethyl)pyridin-2-yl)pyrimidine-4-carboxamide]",4.7177
12,"COc1cccc(-c2nc(O)c(O)c(C(=O)N[C@H](C)C3CCCCC3)n2)n1 [Compound 37, (R)-N-(1-cyclohexylethyl)-5,6-dihydroxy-2-(6-methoxypyridin-2-yl)pyrimidine-4-carboxamide]",0.8976
13,"C[C@H](NC(=O)c1nc(-c2ccccn2)nc(O)c1O)C1CCCCC1 [Compound 38, (S)-N-(1-cyclohexylethyl)-5,6-dihydroxy-2-(pyridin-2-yl)pyrimidine-4-carboxamide]",0.5782
14,"Cc1cccnc1-c1nc(O)c(O)c(C(=O)N[C@@H](C)C2CCCCC2)n1 [Compound 39, (S)-N-(1-cyclohexylethyl)-5,6-dihydroxy-2-(3-methylpyridin-2-yl)pyrimidine-4-carboxamide]",0.8788
15,"Cc1ccc(-c2nc(O)c(O)c(C(=O)N[C@H](C)C3CCCCC3)n2)nc1 [Compound 41, (R)-N-(1-cyclohexylethyl)-5,6-dihydroxy-2-(5-methylpyridin-2-yl)pyrimidine-4-carboxamide]",2.013
16,"O=C(NCCC1CCCC1)c1nc(-c2ccccn2)nc(O)c1O [Compound 43, N-(2-cyclopentylethyl)-5,6-dihydroxy-2-(pyridin-2-yl)pyrimidine-4-carboxamide]",2.1901
17,"C[C@@H](NC(=O)c1nc(-c2cccc(C(F)(F)F)n2)nc(O)c1O)C1CCCCC1 [Compound 44, (R)-N-(1-cyclohexylethyl)-5,6-dihydroxy-2-(6-(trifluoromethyl)pyridin-2-yl)pyrimidine-4-carboxamide]",>50
18,"C[C@@H](NC(=O)c1nc(-c2cccc(N)n2)nc(O)c1O)C1CCCCC1 [Compound 45, (R)-2-(6-aminopyridin-2-yl)-N-(1-cyclohexylethyl)-5,6-dihydroxypyrimidine-4-carboxamide]",3.2272
